Test results published in the supplement of paper PMC10307832.

How the values were obtained:
Assay in all cases: relative viability (nuclei count vs DMSO), 5 days (fraction); higher = more cells survive
IU1-47 + Trametinib = compound: CC1=CC(=C(N1C2=CC=C(C=C2)Cl)C)C(=O)CN3CCCCC3 [IU1-47] + CC(=O)Nc1cccc(-n2c(=O)n(C3CC3)c(=O)c3c(Nc4ccc(I)cc4F)n(C)c(=O)c(C)c32)c1 [Trametinib] (partner 0.02 µM)
Procedure, shortened: (§1)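 Relative viability was taken as the ratio of nuclei in treated wells to nuclei in vehicle wells. Lung cancer cell lines in 1536-well plates received compounds by pin tool one day after seeding, either one drug alone or a fixed anchor-drug dose plus five library-drug doses (not always all listed) in √10 steps. Nuclei were counted on 4× images after 5 days of treatment, and values are medians of duplicate plates.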

IU1-47 + Palbociclib = compound: CC1=CC(=C(N1C2=CC=C(C=C2)Cl)C)C(=O)CN3CCCCC3 [IU1-47] + CC(=O)c1c(C)c2cnc(Nc3ccc(N4CCNCC4)cn3)nc2n(C2CCCC2)c1=O [Palbociclib] (partner 0.5 µM)
Procedure, shortened: as §1

IU1-47 + Navitoclax = compound: CC1=CC(=C(N1C2=CC=C(C=C2)Cl)C)C(=O)CN3CCCCC3 [IU1-47] + CC1(C)CCC(c2ccc(Cl)cc2)=C(CN2CCN(c3ccc(C(=O)NS(=O)(=O)c4ccc(N[C@H](CCN5CCOCC5)CSc5ccccc5)c(S(=O)(=O)C(F)(F)F)c4)cc3)CC2)C1 [Navitoclax] (partner 0.5 µM)
Procedure, shortened: as §1

IU1-47 + Linsitinib = compound: CC1=CC(=C(N1C2=CC=C(C=C2)Cl)C)C(=O)CN3CCCCC3 [IU1-47] + C[C@]1(O)C[C@@H](c2nc(-c3ccc4ccc(-c5ccccc5)nc4c3)c3c(N)nccn32)C1 [Linsitinib] (partner 1 µM)
Procedure, shortened: as §1

Row | Cell Line | relative viability (IU1-47 + Trametinib; first compound 0.08 µM) | relative viability (IU1-47 + Trametinib; first compound 0.253 µM) | relative viability (IU1-47 + Trametinib; first compound 0.8 µM) | relative viability (IU1-47 + Trametinib; first compound 2.53 µM) | relative viability (IU1-47 + Trametinib; first compound 8 µM) | relative viability (IU1-47 + Palbociclib; first compound 0.08 µM) | relative viability (IU1-47 + Palbociclib; first compound 0.253 µM) | relative viability (IU1-47 + Palbociclib; first compound 0.8 µM) | relative viability (IU1-47 + Palbociclib; first compound 2.53 µM) | relative viability (IU1-47 + Palbociclib; first compound 8 µM) | relative viability (IU1-47 + Navitoclax; first compound 0.08 µM) | relative viability (IU1-47 + Navitoclax; first compound 0.253 µM) | relative viability (IU1-47 + Navitoclax; first compound 0.8 µM) | relative viability (IU1-47 + Navitoclax; first compound 2.53 µM) | relative viability (IU1-47 + Navitoclax; first compound 8 µM) | relative viability (IU1-47 + Linsitinib; first compound 0.08 µM) | relative viability (IU1-47 + Linsitinib; first compound 0.253 µM) | relative viability (IU1-47 + Linsitinib; first compound 0.8 µM) | relative viability (IU1-47 + Linsitinib; first compound 2.53 µM) | relative viability (IU1-47 + Linsitinib; first compound 8 µM)
1 | NCI-H2085 | 0.515 | 0.471 | 0.577 | 0.614 | 0.523 | 0.444 | 0.458 | 0.488 | 0.463 | 0.496 | 1.15 | 1.22 | 1.13 | 1.19 | 1.01 | 0.828 | 0.917 | 1.06 | 0.912 | 0.846
2 | NCI-H2087 | 0.172 | 0.187 | 0.203 | 0.195 | 0.229 | 0.204 | 0.302 | 0.239 | 0.174 | 0.25 | 1.1 | 0.922 | 1.11 | 0.947 | 0.99 | 0.947 | 0.953 | 0.93 | 1.14 | 1
3 | NCI-H2126 | 0.642 | 0.595 | 0.592 | 0.498 | 0.534 | 0.392 | 0.352 | 0.359 | 0.364 | 0.395 | 0.987 | 0.823 | 0.897 | 0.545 | 0.809 | 0.733 | 0.76 | 0.74 | 0.531 | 0.778
4 | NCI-H2228 | 0.614 | 0.415 | 0.699 | 0.454 | 0.399 | 0.715 | 0.807 | 0.897 | 0.689 | 0.575 | 0.871 | 0.97 | 1.69 | 0.659 | 0.832 | 0.586 | 0.555 | 0.752 | 0.521 | 0.414
5 | NCI-H2347 | 0.258 | 0.282 | 0.3 | 0.304 | 0.302 | 0.39 | 0.474 | 0.436 | 0.43 | 0.438 | 0.964 | 0.888 | 0.912 | 0.874 | 0.802 | 1.06 | 0.997 | 0.973 | 0.946 | 0.954
6 | NCI-H2405 | 0.69 | 0.702 | 0.762 | 0.672 | 0.622 | 0.539 | 0.593 | 0.531 | 0.539 | 0.506 | 1.02 | 0.902 | 0.862 | – | 0.897 | 1.02 | 1.1 | 1.01 | – | 0.932
7 | NCI-H3122 | 0.253 | 0.287 | 0.268 | 0.309 | 0.222 | 0.186 | 0.189 | 0.18 | 0.275 | 0.212 | 1.02 | 0.966 | 1.02 | 1.01 | 1 | 1 | 1.07 | 1.08 | 1.15 | 1.01
8 | PC-3 [JPC-3] | 0.771 | 0.686 | 0.73 | 0.715 | 0.791 | 0.562 | 0.531 | 0.602 | 0.546 | 0.559 | 0.834 | 0.817 | 0.804 | – | 0.788 | 0.99 | 0.927 | 0.978 | – | 1.04
